Source: article PMC4708017, “Antiplasmodial activity of iron(II) and ruthenium(II) organometallic complexes against Plasmodium falciparum blood parasites” (Memórias do Instituto Oswaldo Cruz, 2015)
Where two headings read alike, the source gives them in different places.

Columns and labels:
[1] = system: HepG2 human hepatoma cells
Protocol: The SI was calculated in order to give an insight into the therapeutic index of the molecules, i.e., how far the toxic concentration is from the therapeutic one.

[2] = octanol/water partition coefficient (log P o/w) by HPLC; assay type: physicochemical; details: determined for the first time in this paper
Excerpt: Measurement of lipophilicity data - Measurements of the octanol/water partition coefficient (log P o/w) were made by the HPLC technique according to a method described previously ([Minick et al. 1988], [Pomper et al. 1990]). Measurement of the chromatographic capacity factors (k) for each molecule was done at various concentrations in the range of 95-75% methanol containing 0.25% (v/v) 1-octanol, and an aqueous phase consisting of 0.15% (v/v) n-decylamine in the buffering agent 3-morpholinopropane-1-sulfonic acid (MOPS) prepared in 1-octanol saturated water adjusted to pH 7.4. These capacity factors (k’) are extrapolated to 100% of the aqueous component given the value of k’. The logP o/w is obtained by the formula logP o/w = 0.13418 + 0.98452 logk’.

[3] = system: Plasmodium falciparum blood forms (W2 clone, chloroquine-resistant); assay: in vitro antiplasmodial activity, anti-histidine-rich protein II assay; assay type: cell-based
Protocol: Continuous culture of P. falciparum and in vitro tests of drug activity - Blood-stage P. falciparum parasites, W2 clone CQ-resistant ([Oduola et al. 1988]), maintained according to [Trager & Jensen (1976)], were used in the drug activity tests after sorbitol-synchronisation ([Lambros & Vanderberg 1979)]. The antiplasmodial activity of the compounds was determined relative to control parasites kept in culture medium only ([Rieckmann et al. 1978)] through the anti-histidine-rich protein II assay ([Noedl et al. 2002)]. The IC50 of parasite growth was determined through sigmoidal dose-response curves built by curve-fitting software (Microcal Origin Software v.5.0). […]

[4] = P. falciparum W2 clone, CQ-resistant, blood-stage, anti-HRPII assay, read-out: IC50 Pf

Molecule	cytotoxicity class (by MLD50) [1]	log P [2]	IC50 [3, 4]	IC50 ([3]; Plasmodium falciparum, W2, read-out: IC50 Pf)	antiplasmodial activity class ([3]; P. falciparum W2, class based on IC50)	IC50 ([3]; Plasmodium falciparum, W2, P. falciparum W2 clone, CQ-resistant, blood-stage, anti-HRPII assay, read-out: IC50 Pf)
1-[(4-(3-dimethylaminopropoxy)phenyl-phenyl)methylidene][3]ferrocenophane [Compound 8]	toxic (those having MLD50< 100 mM were considered toxic)	3.46	5.9 ± 1.6 µM	–	–	–
CCN(CC)CCCC(C)Nc1ccnc2cc(Cl)ccc12 (stereo not shown) [CQ, chloroquine, reference compound]	–	–	–	0.1 ± 0.02 µM	–	–
CCC(=C(c1ccccc1)c1ccccc1)c1ccccc1 [Compound 1]	–	–	83 ± 5 µM	–	inactive	> 60 µM
